This note sets out measurements from patent US20080199480A1, “Methods for Identifying Risk of Type II Diabetes and Treatments Thereof” (SEQUENOM, INC., priority 2004, published 2008).

Usually IC50 stands for the concentration that gives 50% inhibition.

Assay [1] addresses T1, EPHA3 (Homo sapiens, UniProt P29320).
T1 construct: human EPHA3 intracellular domain (amino acids 571-986) containing juxtamembrane, kinase and SAM regions; 6xHis; made in house; host or cells: E. coli (Rosetta DE cells)
T1 sequence (P29320 571-983 limits assumed): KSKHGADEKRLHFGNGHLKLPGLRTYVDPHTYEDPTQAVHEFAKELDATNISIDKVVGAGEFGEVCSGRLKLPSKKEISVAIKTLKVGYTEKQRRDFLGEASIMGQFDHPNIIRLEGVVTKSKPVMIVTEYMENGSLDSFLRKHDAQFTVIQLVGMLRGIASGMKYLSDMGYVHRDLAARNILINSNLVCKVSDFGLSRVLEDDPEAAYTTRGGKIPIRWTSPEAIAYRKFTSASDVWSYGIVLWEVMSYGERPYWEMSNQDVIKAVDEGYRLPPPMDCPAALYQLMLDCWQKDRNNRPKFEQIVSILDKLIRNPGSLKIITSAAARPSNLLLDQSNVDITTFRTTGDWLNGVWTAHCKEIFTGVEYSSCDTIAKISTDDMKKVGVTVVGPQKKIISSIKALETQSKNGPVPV
The experiment in a line: DELFIA EPHA3 kinase assay (phosphorylation of biotin-Src-peptide). It counts as biochemical. The conditions noted are these: EPHA3 30 nM, biotin-Src-peptide 1 μM, ATP 30 μM, 3 hr incubation at 37° C., read-out: EPHA3 Potency IC50. How it is done:
An EPHA3 enzyme construct comprised the human EPHA3 intracellular domain (amino acids 571-986) containing juxtamembrane, kinase and SAM regions. It was expressed in E. coli as a recombinant protein. 6×His and NusA expression tags were used in pET28a and pET44a vectors (Novagen), respectively. Expression was carried out in Rosetta DE cells with IPTG induction followed by recombinant protein purification on a Ni-column using imidazole elution buffer.
The ATP concentrations are selected near the Michaelis-Menten constant (KM) for each individual kinase. Dose-response experiments are performed at ten different inhibitor concentrations in a 384-well plate format. The data are fitted to a standard four-parameter equation listed below:
Y=Min+(Max−Min)/(1+XIC50)̂H
These parameters are obtained by nonlinear regression algorithm built into ActivityBase software (available from ID Business Solutions Ltd., of Guildford, Surrey, UK).
The DELFIA method is a solid-phase, non-homogeneous system that measures enzymatic activity by quantitating the phosphorylation of an immobilized substrate. The compound names are provided in the “Compositions Comprising Diabetes-Directed Molecules” section.
In this experiment, EPHA3 (30 nM) was incubated with biotinylated substrate, biotin-Src-peptide (1 μM)+ATP (30 μM) in an assay medium (10 mM HEPES pH 7.4, 2 mM MgCl2, 10 μM MnCl2, 1.0 mM DTT, 0.01% Pluronic F-127) in the presence of test compounds. After 3 hr incubation at 37° C., the reaction was stopped (5 mM EDTA) and the substrate phosphorylation was quantified in DELFIA assay using Eu-labeled anti-phosphotyrosine antibody.

For assay [2], the system named is Differentiated 3T3-L1. As to the kind of experiment: Glucose uptake assay (insulin-mediated uptake of radioactive glucose). The conditions noted are these: 100 nM insulin for 10 minutes. The class given is cell-based, mouse. From the text:
One of the many responses of adipocytes and muscle cells after exposure, to insulin is the transport of glucose intracellularly. This transport is mediated by GLUT4, an insulin-regulatable glucose transporter. Insulin binding to insulin receptors on the cell surface results in autophosphorylation and activation of the intrinsic tyrosine kinase activity of the insulin receptor. Phosphorylated tyrosine residues on the insulin receptor and its endogenous targets activate several intracellular signaling pathways that eventually lead to the translocation of GLUT4 from intracellular stores to the extracellular membrane. Cells were plated in 6-well dishes, and grown to confluency. Cells were then differentiated with DMEM plus 10% fetal calf serum (FCS), 10 ug/mL insulin, 390 ng/mL dexamethasone and 112 ug/mL isobutylmethylxanthine for 2 days. After 2 days of differentiation, media was changed to maintenance media DMEM plus 10% FCS and 5 ug/mL insulin. Media was changed every 2 days thereafter. Cells were assayed for insulin-mediated glucose uptake 10 days after differentiation. On the day of the assay, cells were washed once with PBS, and serum starved by adding 2 mL of DMEM plus 2 mg/mL BSA for 3 hours. During serum starvation, recombinant rat ephrin-A5/Fc chimeric ligand was preclustered. […] Lysates were read in a Wallac 1450 Microbeta Liquid Scintillation and Luminescence Counter.

Assay [3] has as its system resistin mRNA in differentiated 3T3-L1 cells. As to the kind of experiment: Quantitative assessment of mResistin levels (mRNA, PCR). The class given is cell-based, mouse. The following applies: 10 nM insulin for 2 hours. The protocol:
Resistin is a secreted factor specifically expressed in white adipocyte. […] Elevated levels of resistin have been measured in genetically obese, and high fat fed obese mice. It is therefore thought that resistin contributes to peripheral tissue insulin unresponsiveness, one of the pathological hallmarks of diabetes.
3T3-L1 cells were differentiated for 3 days as previously described and maintained for three days prior to splitting. At day 5 post-differentiation, differentiated cells were plated in 10 cm dish at a cell density of 3×10^6 cells. Cells were then serum starved on day 7 after initiation of differentiation. On day 8, cells were treated with pre-clustered recombinant rat ephrin-A5/Fc chimera as described above for 10 min and treated with 10 nM insulin for 2 hours. Cells were harvested, mRNA extracted using magnetic DYNAL beads and reverse transcribed to cDNA using. Superscript First-Strand Synthesis as described by the manufacturer. The following primers: forward primer; 5′ GTCGCTTCCTGATGTCGGTCA 3′, and reverse primer, 5′ GGCCAGCCTGGACTATATGAG 3′, were used in 15 uL PCR reaction using 55 deg annealing temperature and 30 cycles of amplification.

Assay [4] relates to Differentiated 3T3-L1. The experiment in a line: Triacylglycerol (TG) assay. The class given is cell-based, mouse. The conditions noted are these: 100 nM insulin, 2 hours. From the text:
A direct metabolic consequence of glucose transport intracellularly is its incorporation into the fatty acid and glycerol moieties of triacylglycerol (TG). TGs are highly concentrated stores of metabolic energy, and are the major energy reservoir of cells. In mammals, the major site of accumulation of triacylglycerols is the cytoplasm of adipose cells. Adipocytes are specialized for the synthesis, and storage of TG, and for their mobilization into fuel molecules that are transported to other tissues through the bloodstream. It is likely that changes in the transport of glucose intracellularly can affect cytoplasmic stores of triacylglycerols.
Cells were plated in 6-well dishes, and grown to confluency. When cells reached confluency, cells were differentiated with DMEM plus 10% fetal calf serum (FCS), 10 ug/mL insulin, 390 ng/mL dexamethasone and 112 ug/mL isobutylmethylxanthine for 2 days. After 2 days of differentiation, media was changed to maintenance media DMEM plus 10%. FCS and […] insulin. On the day of the assay (day 9 post-differentiation), cells were washed once with PBS, and serum starved by adding 2 mL of DMEM plus 2 mg/ml BSA for 3 hours. During serum starvation, recombinant rat ephrin-A5/Fc chimeric ligand was preclustered. […] The assay was read at 500-550 nm.

Assay [5] deals with T2, EPHA3 on differentiated 3T3-L1 cells (mouse) (UniProt P29319).
T2 sequence (looked up): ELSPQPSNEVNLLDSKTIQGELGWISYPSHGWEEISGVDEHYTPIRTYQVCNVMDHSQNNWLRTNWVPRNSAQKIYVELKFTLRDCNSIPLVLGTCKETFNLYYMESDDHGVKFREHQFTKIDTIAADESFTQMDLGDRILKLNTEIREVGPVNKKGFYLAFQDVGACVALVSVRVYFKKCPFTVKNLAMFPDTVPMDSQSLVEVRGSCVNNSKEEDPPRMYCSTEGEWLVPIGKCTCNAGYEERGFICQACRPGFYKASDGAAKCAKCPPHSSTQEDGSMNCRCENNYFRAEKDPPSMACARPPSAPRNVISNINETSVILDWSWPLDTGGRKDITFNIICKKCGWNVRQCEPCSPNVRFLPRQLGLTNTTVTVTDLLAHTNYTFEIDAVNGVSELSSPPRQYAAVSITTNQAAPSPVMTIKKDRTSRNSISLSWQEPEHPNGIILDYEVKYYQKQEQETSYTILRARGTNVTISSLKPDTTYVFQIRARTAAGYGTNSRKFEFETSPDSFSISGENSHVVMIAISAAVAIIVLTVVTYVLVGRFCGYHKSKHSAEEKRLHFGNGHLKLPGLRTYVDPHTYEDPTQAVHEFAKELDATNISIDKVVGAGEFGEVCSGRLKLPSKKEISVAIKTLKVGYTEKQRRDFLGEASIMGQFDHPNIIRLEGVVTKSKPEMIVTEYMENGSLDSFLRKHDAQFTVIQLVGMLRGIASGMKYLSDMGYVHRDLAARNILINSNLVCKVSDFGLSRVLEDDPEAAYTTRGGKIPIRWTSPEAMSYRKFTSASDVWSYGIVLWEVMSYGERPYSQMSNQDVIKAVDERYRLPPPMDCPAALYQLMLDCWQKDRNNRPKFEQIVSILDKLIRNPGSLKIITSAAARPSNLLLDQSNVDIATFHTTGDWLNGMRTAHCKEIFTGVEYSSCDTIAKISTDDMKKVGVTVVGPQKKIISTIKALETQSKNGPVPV
As to the kind of experiment: cell-based or functional assay.

Consider `COc1cc2c(Nc3cc(Cl)ccc3F)ncnc2cc1OCC1CCN(C)CC1` [sqnm-8], for which the IC50 in assay [1] was found to be 2 µM. In the case of `COc1cc2c(Nc3ccc(Cl)cc3F)ncnc2cc1OCC1CN(C)CCO1` (stereo not drawn) [sqnm-14], the IC50 in assay [1] was 0.2 µM.

As for “insulin: porcine insulin used to stimulate differentiated 3T3-L1 cells”, in assay [2], the “increase in uptake of radioactive glucose” value was 22 fold. Further, the “resistin mRNA levels” value in assay [3] is on record as “decrease”. The “increase in TG stores” value in assay [4] is “about 23%”. As to `Oc1cccc(Nc2ncnc3ccccc23)c1` [sqnm-16], the half-inhibitory concentration (IC50) in assay [1] was found to be 11 µM. Take `COc1cc2c(Nc3ccc(Cl)cc3F)ncnc2cc1OCC1CN(C(C)C)CCO1` (stereo not drawn) [sqnm-15]: the 50% inhibitory concentration (IC50) in assay [1] is 0.8 µM.

Consider `COc1cc2ncnc(Nc3ccc(Cl)c(Cl)c3)c2cc1OC` [sqnm-1], for which, in assay [1], the IC50 came out at 2 µM. As to `COc1cc2c(Nc3ccc(Cl)cc3F)ncnc2cc1OCC1CCN(C)CC1` [sqnm-7], the concentration for half-maximal inhibition (IC50) in assay [1] came out at 0.9 µM. On the same count and under the same terms, as for `COc1cc2c(Nc3ccc(Cl)c(Cl)c3)ncnc2cc1OCC1CN(C)CCO1` (stereo not drawn) [sqnm-11], the figure is 0.4 µM; as for `COc1cc2ncnc(Nc3cccc(Cl)c3)c2cc1OC` [sqnm-4], 4.5 µM. In the case of `COc1cc2c(Nc3ccc(Cl)cc3F)ncnc2cc1OCC1CN(C2CCCC2)CCO1` (stereo not drawn) [sqnm-10], the IC50 in assay [1] was 0.3 µM.

Turning to `COc1cc2ncnc(Nc3ccc(Cl)cc3F)c2cc1OC` [sqnm-5], the IC50 in assay [1] was found to be 0.5 µM. Consider `COc1cc2c(Nc3ccc(Cl)c(Cl)c3)ncnc2cc1OCC1CN(C2CCCC2)CCO1` (stereo not drawn) [sqnm-9], for which the IC50 in assay [1] turned out to be 0.2 µM. With `COc1cc2c(Nc3ccc(Cl)c(Br)c3)ncnc2cc1OCC1CN(C)CCO1` (stereo not drawn) [sqnm-12], in assay [1], the IC50 was 0.2 µM.

B1: recombinant rat ephrin-A5/Fc chimeric ligand, preclustered with anti-human IgG, Fc γ fragment specific antibody (Fc fusion, part only; not given: Fc part, UniProt P97605 21-203, looked up, part only)
chain, part: QDPGSKVVADRYAVYWNSSNPRFQRGDYHIDVCINDYLDVFCPHYEDSVPEDKTERYVLYMVNFDGYSACDHTSKGFKRWECNRPHSPNGPLKFSEKFQLFTPFSLGFEFRPGREYFYISSAIPDNGRRSCLKLKVFVRPTNSCMKTIGVRDRVFDVNDKVENSLEPADDTVHESAEPSRGEN
Turning to B1, in assay [5], the insulin-mediated triacylglycerol (TG) stores, differentiated 3T3-L1, 10 min pretreatment with ephrin-A5 amounted to 10 % decrease; the uptake of radioactive glucose, insulin-treated differentiated 3T3-L1, 10 min pretreatment with pre-clustered ephrin-A5 was determined as 20 % decrease; the uptake of radioactive glucose, insulin-treated differentiated 3T3-L1, 90 min preincubation with pre-clustered ephrin-A5 was 15 % decrease.
